Experimental data from ChEMBL document CHEMBL1130253 (J Med Chem, 1997).
pEC50, pKi: −log10 of the molar value.

Assays:
CCRF-CEM = test: Concentration required to inhibit against HIV strain IIIB in CEM cell; assay type: functional; details: Homo sapiens, read-out: ED50 (the source's name)
[1] = biological target: Human immunodeficiency virus type 1 protease (Human immunodeficiency virus 1, UniProt Q72874); test: Inhibitory activity against HIV-1 protease
[2] = Minimum cellular toxicity against the HIV strain IIIB in CEM cells was determined; assay type: cell-based, CCRF-CEM; details: human, read-out: TD50 (the source's name)

Row | Structure (SMILES) | pEC50 (CCRF-CEM) | pKi [1] | CC50 [2]
1 | Cc1c(O)cccc1C(=O)N[C@@H](CSc1ccc2ccccc2c1)[C@H](O)CN1C[C@H]2CCCC[C@H]2C[C@H]1C(=O)NC(C)(C)C | 7.00 | 7.01 | 
2 | Cc1c(O)cccc1C(=O)N[C@@H](Cc1ccccc1)[C@H](O)CN1C[C@H]2CCCC[C@H]2C[C@H]1C(=O)NC(C)(C)C | 7.48 |  | > 5000 nM
